Patent US6362369B1, “Phthalic acid diamide derivatives fluorine-containing aniline compounds as starting material, agricultural and horticultural insecticides, and a method for application of the insecticides” (Nihon Nohyaku Co., Ltd., priority 1997, dated 2002)

Columns and labels:
Assay type in all cases: in vivo
[1] = test system: common cutworm (Spodoptera Litura); experiment: Insecticidal effect on common cutworm (Test Example 2); conditions: 500 ppm, 25° C.; for Insecticidal effect, Test Example 2: cabbage leaf immersed; for Insecticidal effect, Test Example 2 / Insecticidal effect on common cutworm (Test Example 2), judged grade: eight days after inoculation; for Insecticidal effect (Test Example 2), judged from mortality / Insecticidal effect on common cutworm (Test Example 2), judged grade: cabbage leaf dip; for Insecticidal effect (Test Example 2), judged from mortality: 8 days after inoculation; for Insecticidal effect on common cutworm (Test Example 2), judged grade: second-instar larvae
Method in brief: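 Mortality was scored 8 days post-inoculation, using three groups of 10 second-instar larvae kept at 25 °C in closed 9 cm dishes on air-dried treated material. The insecticidal effect was graded from calculated mortality by a set criterion.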

[2] = test system: rice leafroller (Cnaphalocrocis medinalis); experiment: Insecticidal effect on rice leafroller (Test Example 3); conditions: 500 ppm, 25° C., humidity 70%; for Insecticidal effect, Test Example 3: rice lamina immersed; for Insecticidal effect, Test Example 3 / Insecticidal effect on rice leafroller (Test Example 3), judged grade: four days after inoculation; for Insecticidal effect (Test Example 3), judged from mortality / Insecticidal effect on rice leafroller (Test Example 3), judged grade: rice lamina dip; for Insecticidal effect (Test Example 3), judged from mortality: 4 days after inoculation; for Insecticidal effect on rice leafroller (Test Example 3), judged grade: third-instar larvae
Method in brief: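 Insecticidal effect is judged by a predefined criterion from dead/alive counts four days after infesting air-dried lamina with third-instar larvae, kept on moistened filter paper at 25° C, 70% humidity.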

[3] = test system: diamondback moth (Plutella xylostella); experiment: Insecticidal effect on diamondback moth (Test Example 1); conditions: for Insecticidal effect, Test Example 1 / Insecticidal effect (Test Example 1), judged from mortality: diamondback moth; for Insecticidal effect (Test Example 1), judged from mortality: judged by the criterion of Test Example 1; for Insecticidal effect on diamondback moth (Test Example 1), judged grade: mortality judged according to the criterion shown in Test Example 1
Method in brief: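 Oviposition by adults on Chinese cabbage seedling; immersion; air-dry; 25° C room. Count of hatched larvae at day 6 post-immersion → mortality → effect graded by criterion. Triplicate, 10 insects/group.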

[4] = common cutworm second-instar larvae
[5] = rice leafroller third-instar larvae
[6] = mortality judged by criterion of Test Example 1
[7] = second-instar larvae of common cutworm
[8] = third-instar larvae of rice leafroller
[9] = judged by the mortality criterion of Test Example 1

SMILES: CC(C)(C)NC(=O)c1c(Cl)cccc1C(=O)Nc1ccc2c(c1)OC(F)(F)C(F)(F)O2 [compound 1066]
- Insecticidal effect, Test Example 2 [1, 4]: C (89-80)
- Insecticidal effect, Test Example 3 [2, 5]: A (100)
- Insecticidal effect, Test Example 1 [3, 6]: A (100)

SMILES: Cc1cc(C(F)(F)C(F)(F)F)ccc1NC(=O)c1cccc(OC(F)(F)F)c1C(=O)NC(C)C [compound 1191]
- Insecticidal effect, Test Example 2 [1, 4]: A (100)
- Insecticidal effect, Test Example 3 [2, 5]: A (100)
- Insecticidal effect, Test Example 1 [3, 6]: A (100)

SMILES: Cc1cc(C(F)(F)C(F)(F)F)ccc1NC(=O)c1cccc(I)c1C(=O)NC(C)(C)CCl [compound 1646]
- Insecticidal effect (Test Example 2), judged from mortality [1, 7]: A (100)
- Insecticidal effect (Test Example 3), judged from mortality [2, 8]: A (100)
- Insecticidal effect (Test Example 1), judged from mortality [3]: A (100)

SMILES: COc1ccc(NC(=O)c2cccc(I)c2C(=O)NC(C)C)c(C)c1C [compound 378]
- Insecticidal effect, Test Example 2 [1, 7]: D (79-50)
- Insecticidal effect, Test Example 3 [2, 8]: A (100)
- Insecticidal effect, Test Example 1 [3, 9]: A (100)

SMILES: CC(C)NC(=O)c1c(I)cccc1C(=O)Nc1ccc2oc(C(F)(F)C(F)(F)F)nc2c1 [compound 1142]
- Insecticidal effect, Test Example 2 [1, 4]: A (100)
- Insecticidal effect, Test Example 3 [2, 5]: A (100)
- Insecticidal effect, Test Example 1 [3, 6]: A (100)

SMILES: Cc1ccc(Cl)cc1NC(=O)c1cccc([N+](=O)[O-])c1C(=O)NC1CC1 [compound 851]
- Insecticidal effect on common cutworm (Test Example 2), judged grade [1]: D (79-50)
- Insecticidal effect on rice leafroller (Test Example 3), judged grade [2]: A (100)
- Insecticidal effect on diamondback moth (Test Example 1), judged grade [3]: A (100)

SMILES: CCC(C)NC(=O)c1c(I)cccc1C(=O)Nc1ccc(OC(F)F)cc1C (stereo not drawn) [compound 1454]
- Insecticidal effect (Test Example 2), judged from mortality [1, 7]: A (100)
- Insecticidal effect (Test Example 3), judged from mortality [2, 8]: A (100)
- Insecticidal effect (Test Example 1), judged from mortality [3]: A (100)

SMILES: Cc1cc(C(F)(F)C(F)(F)F)ccc1NC(=O)c1cccc(Cl)c1C(=O)NC(C)c1ccccc1Cl (stereo not drawn) [compound 1362]
- Insecticidal effect, Test Example 2 [1, 4]: A (100)
- Insecticidal effect, Test Example 3 [2, 5]: A (100)
- Insecticidal effect, Test Example 1 [3, 6]: A (100)

SMILES: Cc1cc(OC(F)(F)C(Cl)(Cl)Cl)ccc1NC(=O)c1cccc(Cl)c1C(=O)NC(C)C [compound 129]
- Insecticidal effect, Test Example 2 [1, 7]: A (100)
- Insecticidal effect, Test Example 3 [2, 8]: A (100)
- Insecticidal effect, Test Example 1 [3, 9]: A (100)

SMILES: CC(C)NC(=O)c1c(I)cccc1C(=O)Nc1ccc(OC(F)(F)C(F)OC(F)(F)F)cc1 (stereo not drawn) [compound 353]
- Insecticidal effect, Test Example 2 [1, 7]: A (100)
- Insecticidal effect, Test Example 3 [2, 8]: A (100)
- Insecticidal effect, Test Example 1 [3, 9]: A (100)

SMILES: CC(C)NC(=O)c1c(Cl)cccc1C(=O)Nc1ccc(C(F)(F)C(F)(F)F)cc1Cl [compound 1383]
- Insecticidal effect, Test Example 2 [1, 4]: A (100)
- Insecticidal effect, Test Example 3 [2, 5]: A (100)
- Insecticidal effect, Test Example 1 [3, 6]: A (100)

SMILES: C#CC(C)(C)NC(=O)c1c(Cl)cccc1C(=O)Nc1ccc(C(F)(F)C(F)(F)F)cc1C [compound 1466]
- Insecticidal effect (Test Example 2), judged from mortality [1, 7]: A (100)
- Insecticidal effect (Test Example 3), judged from mortality [2, 8]: A (100)
- Insecticidal effect (Test Example 1), judged from mortality [3]: A (100)

SMILES: COc1ccc(-c2ccccc2)cc1NC(=O)c1c(Cl)cccc1C(=O)NC(C)C [compound 1295]
- Insecticidal effect, Test Example 2 [1, 4]: A (100)
- Insecticidal effect, Test Example 3 [2, 5]: A (100)
- Insecticidal effect, Test Example 1 [3, 6]: A (100)

SMILES: Cc1cc(C(F)(F)C(F)(F)F)ccc1NC(=O)c1cccc(Cl)c1C(=O)NCc1ccccc1Cl [compound 1309]
- Insecticidal effect, Test Example 2 [1, 4]: A (100)
- Insecticidal effect, Test Example 3 [2, 5]: A (100)
- Insecticidal effect, Test Example 1 [3, 6]: A (100)

SMILES: Cc1cc(C(F)(C(F)(F)F)C(F)(F)F)ccc1NC(=O)c1ccc(F)c(Cl)c1C(=O)NC(C)(C)C [compound 1263]
- Insecticidal effect, Test Example 2 [1, 4]: A (100)
- Insecticidal effect, Test Example 3 [2, 5]: A (100)
- Insecticidal effect, Test Example 1 [3, 6]: A (100)

SMILES: COc1cc(C(F)(C(F)(F)F)C(F)(F)F)ccc1NC(=O)c1cccc(I)c1C(=O)NC(C)C [compound 1715]
- Insecticidal effect (Test Example 2), judged from mortality [1, 7]: A (100)
- Insecticidal effect (Test Example 3), judged from mortality [2, 8]: A (100)
- Insecticidal effect (Test Example 1), judged from mortality [3]: A (100)

SMILES: Cc1cc(C(F)(F)C(F)(F)C(F)(F)C(F)(F)F)ccc1NC(=O)c1cccc(Br)c1C(=O)NC(C)C [Compound No. 281, 3-bromo-N^1-(4-nonafluorobutyl-2-methylphenyl)-N^2-isopropyl-phthalic acid diamide]
- Insecticidal effect, Test Example 2 [1, 7]: A (100)
- Insecticidal effect, Test Example 3 [2, 8]: A (100)
- Insecticidal effect, Test Example 1 [3, 9]: A (100)

SMILES: Cc1cc(C(F)(F)C(F)(F)C(F)(F)F)ccc1NC(=O)c1cc(F)ccc1C(=O)NC(C)C [compound 533]
- Insecticidal effect on common cutworm (Test Example 2), judged grade [1]: A (100)
- Insecticidal effect on rice leafroller (Test Example 3), judged grade [2]: A (100)
- Insecticidal effect on diamondback moth (Test Example 1), judged grade [3]: A (100)

SMILES: Cc1cc(OC(F)(F)F)ccc1NC(=O)c1cccc(Br)c1C(=O)NC(C)C [compound 289]
- Insecticidal effect, Test Example 2 [1, 7]: A (100)
- Insecticidal effect, Test Example 3 [2, 8]: A (100)
- Insecticidal effect, Test Example 1 [3, 9]: A (100)

SMILES: CC(C)NC(=O)c1ccccc1C(=O)Nc1ccc(Cl)cc1Cl [compound 42]
- Insecticidal effect, Test Example 2 [1, 7]: D (79-50)
- Insecticidal effect, Test Example 3 [2, 8]: A (100)
- Insecticidal effect, Test Example 1 [3, 9]: A (100)

SMILES: Cc1cc(C(F)(F)C(F)(F)F)ccc1NC(=O)c1ccccc1C(=O)NC(C)(C)C [compound 931]
- Insecticidal effect on common cutworm (Test Example 2), judged grade [1]: A (100)
- Insecticidal effect on rice leafroller (Test Example 3), judged grade [2]: A (100)
- Insecticidal effect on diamondback moth (Test Example 1), judged grade [3]: A (100)

SMILES: Cc1cc(NC(=O)c2cccc(I)c2C(=O)NC(C)C)ccc1C(F)(F)C(F)(F)F [compound 1563]
- Insecticidal effect (Test Example 2), judged from mortality [1, 7]: A (100)
- Insecticidal effect (Test Example 3), judged from mortality [2, 8]: A (100)
- Insecticidal effect (Test Example 1), judged from mortality [3]: A (100)

SMILES: CC(C)NC(=O)c1c(C(=O)Nc2ccc3c(c2)OC(F)(F)C(F)O3)cccc1[N+](=O)[O-] (stereo not drawn) [compound 1162]
- Insecticidal effect, Test Example 2 [1, 4]: A (100)
- Insecticidal effect, Test Example 3 [2, 5]: A (100)
- Insecticidal effect, Test Example 1 [3, 6]: A (100)

SMILES: CCC(C)(C)NC(=O)c1c(F)cccc1C(=O)Nc1ccc(C(F)(C(F)(F)F)C(F)(F)F)cc1C [compound 1153]
- Insecticidal effect, Test Example 2 [1, 4]: A (100)
- Insecticidal effect, Test Example 3 [2, 5]: A (100)
- Insecticidal effect, Test Example 1 [3, 6]: A (100)

SMILES: CC(C)(C)NC(=O)c1c(I)cccc1C(=O)Nc1ccc(S(=O)(=O)C(F)(F)F)cc1 [compound 1080]
- Insecticidal effect, Test Example 2 [1, 4]: A (100)
- Insecticidal effect, Test Example 3 [2, 5]: A (100)
- Insecticidal effect, Test Example 1 [3, 6]: A (100)

SMILES: Cc1cc(C(F)(F)C(F)(F)F)ccc1NC(=O)c1cccc(Cl)c1C(=O)NC(C)(C)c1ccccc1 [compound 1417]
- Insecticidal effect, Test Example 2 [1, 4]: A (100)
- Insecticidal effect, Test Example 3 [2, 5]: A (100)
- Insecticidal effect, Test Example 1 [3, 6]: A (100)

SMILES: CC(C)NC(=O)c1c(C(=O)Nc2ccc(C(F)(F)F)cc2)cccc1[N+](=O)[O-] [compound 606]
- Insecticidal effect on common cutworm (Test Example 2), judged grade [1]: D (79-50)
- Insecticidal effect on rice leafroller (Test Example 3), judged grade [2]: A (100)
- Insecticidal effect on diamondback moth (Test Example 1), judged grade [3]: A (100)

SMILES: CC(C)(C)NC(=O)c1c(I)cccc1C(=O)Nc1ccc(C(F)(C(F)(F)F)C(F)(F)F)cc1Cl [compound 1723]
- Insecticidal effect (Test Example 2), judged from mortality [1, 7]: A (100)
- Insecticidal effect (Test Example 3), judged from mortality [2, 8]: A (100)
- Insecticidal effect (Test Example 1), judged from mortality [3]: A (100)

SMILES: CCc1cc(OC(F)(F)F)ccc1NC(=O)c1cccc(I)c1C(=O)N(CC)CC [compound 1212]
- Insecticidal effect, Test Example 2 [1, 4]: A (100)
- Insecticidal effect, Test Example 3 [2, 5]: A (100)
- Insecticidal effect, Test Example 1 [3, 6]: A (100)

SMILES: Cc1cc(OC(F)(F)C(F)Cl)ccc1NC(=O)c1cccc([N+](=O)[O-])c1C(=O)NC(C)C (stereo not drawn) [compound 714]
- Insecticidal effect on common cutworm (Test Example 2), judged grade [1]: A (100)
- Insecticidal effect on rice leafroller (Test Example 3), judged grade [2]: A (100)
- Insecticidal effect on diamondback moth (Test Example 1), judged grade [3]: A (100)
